Values of other authors, collected in patent US20240237650A1, “AQUEOUS FUNGICIDE MIXTURE FORMULATION” (ADAMA MAKHTESHIM LTD., priority 2021, published 2024).
Read-outs that look alike come from different tables or passages of the source.

Settings: 20° C.

SMILES: CO/C=C(/C(=O)OC)c1ccccc1Oc1cc(Oc2ccccc2C#N)ncn1 [azoxystrobin, methyl (E)-2-{2[6-(2-cyanophenoxy)pyrimidin-4-yloxy]phenyl}-3-methoxyacrylate]
- solubility of azoxystrobin in water (pH 5.2 and 7.0): 6.7 µg/mL
- solubility of azoxystrobin in water (pH 9.2): 5.9 µg/mL
